Laboratory results published in PMC6934184, “Selective DNA-PKcs inhibition extends the therapeutic index of localized radiotherapy and chemotherapy” (The Journal of Clinical Investigation, 2019).

Target: T1, ABL1 G250E (Homo sapiens, UniProt P00519, G250E)
T1 construct: purchased Thermo Fisher Scientific (Life Technologies) SelectScreen
Test: SelectScreen Z'LYTE
Type: biochemical
Procedure, shortened: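 NU5455 was profiled across the SelectScreen Broad panel of kinase activity and binding assays. Z'LYTE reactions such as CSF1R ran at apparent Km ATP, while the Adapta CAMK1 assay used ATP listed as 10. Values are given as percent.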

## CN(C(=O)CN1CCOCC1)c1ccc2sc3c(-c4cccc5c(=O)cc(N6CC7CCC(C6)O7)oc45)cccc3c2c1 [NU5455]
  inhibition at 1 µM: -8.5%
